Our source for the IC50 values is patent publication US10414763B2 (CANCER RESEARCH TECHNOLOGY LIMITED, priority 2014, dated 2019).

Each structure is given as a SMILES string.

In this test the target is T1, full-length human PKCι (Homo sapiens, UniProt P41743).
T1 construct: Recombinant, full-length human PKCι expressed in Sf21 insect cells is also commercially available; purchased EMD Millipore; host or cells: Sf21 insect cells (baculovirus)
T1 sequence (P41743 1-596): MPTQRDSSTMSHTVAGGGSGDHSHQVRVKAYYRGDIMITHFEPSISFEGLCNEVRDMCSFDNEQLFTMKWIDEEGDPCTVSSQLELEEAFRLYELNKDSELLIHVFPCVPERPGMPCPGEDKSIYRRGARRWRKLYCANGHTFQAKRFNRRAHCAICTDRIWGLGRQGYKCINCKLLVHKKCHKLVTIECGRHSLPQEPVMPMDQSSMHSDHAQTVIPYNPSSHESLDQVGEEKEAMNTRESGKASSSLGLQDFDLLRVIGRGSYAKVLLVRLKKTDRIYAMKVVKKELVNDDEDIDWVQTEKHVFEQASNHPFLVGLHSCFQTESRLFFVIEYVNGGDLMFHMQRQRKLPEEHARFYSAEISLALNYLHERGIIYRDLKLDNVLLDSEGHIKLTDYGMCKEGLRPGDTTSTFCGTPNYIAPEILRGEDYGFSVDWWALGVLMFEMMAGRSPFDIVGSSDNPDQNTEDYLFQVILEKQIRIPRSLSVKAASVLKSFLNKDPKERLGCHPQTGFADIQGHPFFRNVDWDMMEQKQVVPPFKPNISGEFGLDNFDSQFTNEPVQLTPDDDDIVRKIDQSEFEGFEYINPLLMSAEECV
Description: PKCι IC50 IMAP fluorescence polarisation assay, full-length enzyme, 150 μM ATP. In kind it is biochemical. As to conditions: read-out: IC50 in IMAP assay against full length PKCi at 150 μM ATP. In short, it runs like this:
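IMAP fluorescence polarisation kinase assay: 15 pM baculovirus-expressed human PKCiota with 100 nM FAM-pseudosubstrate peptide and 150 μM ATP, 1 h at 25 °C. IMAP detection reagent then 2 h at 25 °C before FP measurement. Inhibition referenced to no-compound and no-enzyme controls for IC50 fitting.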
As for `CC1CC(Nc2nc(-c3ccnc(Nc4ncccc4F)c3)nc3cncc(C4CC4)c23)CC(C)N1` (centres unmarked) [Example 260, {5-Cyclopropyl-2-[2-(3-fluoro-pyridin-2-ylamino)-pyridin-4-yl]-pyrido[3,4-d]pyrimidin-4-yl}-(2,6-dimethyl-piperidin-4-yl)-amine], the IC50 lay within 100 to 1000 nM.

Consider `CC1(C)CNCC[C@@H]1Nc1nc(-c2ccnc(Nc3cccnc3)c2)nc2cncc(C3CCC3)c12` [Example 264, 5-cyclobulyl-N-[(4S)-3,3-dimethyl-4-piperidyl]-2-[2-(3-pyridylamino)-4-pyridyl]pyrido[3,4-d]pyrimidin-4-amine], for which the half-maximal inhibitory concentration (IC50) was less than 100 nM.

For `CC1(C)CNCC[C@@H]1Nc1nc(-c2ccnc(Nc3cncc(F)c3)c2)nc2cncc(C3CC3)c12` [Example 265, 5-cyelopropyl-N-[(4S)-3,3-dimethyl-4-piperidyl]-2-[2-[(5-fluoro-3-pyridyl)amino]-4-pyridyl]pyrido[3,4-d]pyrimidin-4-amine], the IC50 lay within 100 to 1000 nM.

For the compound `CC1(C)CNCC[C@@H]1Nc1nc(-c2ccnc(Nc3cncc(Cl)c3)c2)nc2cncc(C3CC3)c12` [Example 266, 2-[2-[(5-chloro-3-pyridyl)amino]-4-pyridyl]-5-cyclopropyl-N-[(4S)-3,3-dimethyl-4-piperidyl]pyrido[3,4-d]pyrimidin-4-amine], the IC50 fell in the range of 100 to 1000 nM.

Turning to `CC1(C)CNCC[C@@H]1Nc1nc(-c2ccnc(N[C@H](C(=O)O)c3ccccc3)c2)nc2cncc(C3CC3)c12` [Example 267, (2S)-2-[[4-[5-cyclopropyl-4-[[(4S)-3,3-dimethyl-4-piperidyl]amino]pyrido[3,4-d]pyrimidin-2-yl]-2-pyridyl]amino]-2-phenyl-acetic acid], the IC50 is 1000 to 10000 nM.

For the compound `COc1cncc2nc(-c3ccnc(Nc4nc(F)ccc4F)c3)nc(N[C@H]3CCNCC3(C)C)c12` [Example 268, 2-[2-[(3,6-difluoro-2-pyridyl)amino]-4-pyridyl]-N-[(4S)-3,3-dimethyl-4-piperidyl]-5-methoxy-pyrido[3,4-d]pyrimidin-4-amine], the half-maximal inhibitory concentration (IC50) is less than 100 nM.

On to `COc1cncc2nc(-c3ccnc(Nc4ncccc4F)c3)nc(N[C@H]3CCNCC3(C)C)c12` [Example 269, N-[(4S)-3,3-dimethyl-4-piperidyl]-2-[2-[(3-fluoro-2-pyridyl)amino]-4-pyridyl]-5-methoxy-pyrido[3,4-d]pyrimidin-4-amine], for which the IC50 lay within 100 to 1000 nM.

Take `Cc1cccc(Nc2cc(-c3nc(N[C@H]4CCNCC4(C)C)c4c(C5CCC5)cncc4n3)ccn2)n1` [Example 271, {5-Cyclobutyl-2-[2-(6-methyl-pyridin-2-ylamino)-pyridin-4-yl]-pyrido[3,4-d]pyrimidin-4-yl}-((S)-3,3-dimethyl-piperidin-4-yl)-amine]: the IC50 is less than 100 nM.

`Cc1nc(Nc2cc(-c3nc(N[C@H]4CCNCC4(C)C)c4c(C5CCC5)cncc4n3)ccn2)ccc1C#N` [Example 272]: the IC50 was less than 100 nM.

`CC1(C)CNCC[C@@H]1Nc1nc(-c2ccnc(Nc3nc4ccccc4o3)c2)nc2cncc(C3CCC3)c12` [Example 274, {2-[2-(Benzoxazol-2-ylamino)-pyridin-4-yl]-5-cyclobutyl-pyrido[3,4-d]pyrimidin-4-yl}-((S)-3,3-dimethyl-piperidin-4-yl)-amine]: the half-maximal inhibitory concentration (IC50) is less than 100 nM.

Turning to `CC1(C)CNCC[C@@H]1Nc1nc(-c2ccnc(Nc3nc4ccccn4n3)c2)nc2cncc(C3CCC3)c12` [Example 275, {5-Cyclobutyl-2-[2-([1,2,4]triazolo[1,5-a]pyridin-2-ylamino)-pyridin-4-yl]-pyrido[3,4-d]pyrimidin-4-yl}-((S)-3,3-dimethyl-piperidin-4-yl)-amine], the IC50 is less than 100 nM.

On to `CC1(C)CNCC[C@@H]1Nc1nc(-c2ccnc(Nc3nc(F)c(F)cc3F)c2)nc2cncc(C3CC3)c12` [Example 278, {5-Cyclopropyl-2-[2-(3,5,6-trifluoro-pyridin-2-ylamino)-pyridin-4-yl]-pyrido[3,4-d]pyrimidin-4-yl}-((S)-3,3-dimethyl-piperidin-4-yl)-amine], for which the IC50 was less than 100 nM.

Turning to `Cn1c(Nc2cc(-c3nc(N[C@H]4CCNCC4(C)C)c4c(C5CCC5)cncc4n3)ccn2)nc2ccccc21` [Example 281], the IC50 is less than 100 nM.

Take `Cn1nc(Nc2cc(-c3nc(N[C@H]4CCNCC4(C)C)c4c(C5CCC5)cncc4n3)ccn2)c2ccccc21` [Example 284, {5-Cyclobutyl-2-[2-(1-methyl-1H-indazol-3-ylamino)-pyridin-4-yl]-pyrido[3,4-d]pyrimidin-4-yl}-((S)-3,3-dimethyl-piperidin-4-yl)-amine]: the half-maximal inhibitory concentration (IC50) was less than 100 nM.

For `CC1(C)CNCC[C@@H]1Nc1nc(-c2cccc(Nc3nc(F)ccc3F)c2)nc2cncc(C3CCC3)c12` [Example 315, {5-Cyclobutyl-2-[3-(3,6-difluoro-pyridin-2-ylamino)-phenyl]-pyrido[3,4-d]pyrimidin-4-yl}-((S)-3,3-dimethyl-piperidin-4-yl)-amine], the concentration for half-maximal inhibition (IC50) fell in the range of 100 to 1000 nM.

For the compound `CC1(C)CNCC[C@@H]1Nc1nc(-c2ccnc(Nc3ncc(Cl)cc3F)c2)nc2cncc(C3CCC3)c12` [Example 316, {2-[2-(5-Chloro-3-fluoro-pyridin-2-ylamino)-pyridin-4-yl]-5-cyclobutyl-pyrido[3,4-d]pyrimidin-4-yl}-((S)-3,3-dimethyl-piperidin-4-yl)-amine], the half-maximal inhibitory concentration (IC50) is less than 100 nM.

For the compound `CC1(C)CNCC[C@@H]1Nc1nc(-c2ccnc(Nc3cccc(C#N)n3)c2)nc2cncc(C3CCC3)c12` [Example 317, 6-{4-[5-Cyclobutyl-4-((S)-3,3-dimethyl-piperidin-4-ylamino)-pyrido[3,4-d]pyrimidin-2-yl]-pyridin-2-ylamino}-pyridine-2-carbonitrile], the IC50 is less than 100 nM.

`CC1(C)CNCC[C@@H]1Nc1nc(-c2ccnc(Nc3ccc4cccc(F)c4n3)c2)nc2cncc(C3CCC3)c12` [Example 318, {5-Cyclobutyl-2-[2-(8-fluoro-quinolin-2-ylamino)-pyridin-4-yl]-pyrido[3,4-d]pyrimidin-4-yl}-((S)-3,3-dimethyl-piperidin-4-yl)-amine]: the IC50 is less than 100 nM.

In the case of `CC1(C)CNCC[C@@H]1Nc1nc(-c2ccnc(Nc3ncc(Cl)cc3F)c2)nc2cncc(C3CC3)c12` [Example 319, {2-[2-(5-Chloro-3-fluoro-pyridin-2-ylamino)-pyridin-4-yl]-5-cyclopropyl-pyrido[3,4-d]pyrimidin-4-yl}-((S)-3,3-dimethyl-piperidin-4-yl)-amine], the IC50 is less than 100 nM.

For `CC1(C)CNCC[C@@H]1Nc1nc(-c2ccnc(Nc3ncc(C#N)cc3F)c2)nc2cncc(C3CCC3)c12` [Example 320, 6-{4-[5-Cyclobutyl-4-((S)-3,3-dimethyl-piperidin-4-ylamino)-pyrido[3,4-d]pyrimidin-2-yl]-pyridin-2-ylamino}-5-fluoro-nicotinonitrile], the concentration for half-maximal inhibition (IC50) is less than 100 nM.

Take `CC1(C)CNCC[C@@H]1Nc1nc(-c2cccc(Nc3ccccn3)c2)nc2cncc(C3CCC3)c12` [Example 321, {5-Cyclobutyl-2-[3-(pyridin-2-ylamino)-phenyl]-pyrido[3,4-d]pyrimidin-4-yl}-((S)-3,3-dimethyl-piperidin-4-yl)-amine]: the IC50 was in the range of 100 to 1000 nM.

Regarding `Cc1cc(C#N)cnc1Nc1cc(-c2nc(N[C@H]3CCNCC3(C)C)c3c(C4CCC4)cncc3n2)ccn1` [Example 323, 6-{4-[5-Cyclobutyl-4-((S)-3,3-dimethyl-pipcridin-4-ylamino)-pyrido[3,4-d]pyrimidin-2-yl]-pyridin-2-ylamino}-5-methyl-nicotinonitrile], the IC50 was less than 100 nM.

`CC1(C)CNCC[C@@H]1Nc1nc(-c2cccc(Nc3cnccn3)c2)nc2cncc(C3CCC3)c12` [Example 324, 5-Cyclobutyl-N-[(4S)-3,3-dimethyl-4-piperidyl]-2-[3-(pyrazin-2-ylamino)phenyl]pyrido[3,4-d]pyrimidin-4-amine]: the half-inhibitory concentration (IC50) was 1000 to 10000 nM.

Take `CC1(C)CNCC[C@@H]1Nc1nc(-c2ccnc(Nc3nc(F)cc(F)c3F)c2)nc2cncc(C3CC3)c12` [Example 325, 5-Cyclopropyl-N-[(4S)-3,3-dimethyl-4-piperidyl]-2-[2-[(3,4,6-trifluoro-2-pyridyl)amino]-4-pyridyl]pyrido[3,4-d]pyrimidin-4-amine]: the half-maximal inhibitory concentration (IC50) was less than 100 nM.

With `CC1(C)CNCC[C@@H]1Nc1nc(-c2ccnc(Nc3nc(F)cc(F)c3F)c2)nc2cncc(C3CCC3)c12` [Example 326, 5-Cyclobutyl-N-[(4S)-3,3-dimethyl-4-piperidyl]-2-[2-[(3,4,6-trifluoro-2-pyridyl)amino]-4-pyridyl]pyrido[3,4-d]pyrimidin-4-amine], the 50% inhibitory concentration (IC50) is less than 100 nM.

In the case of `CC1(C)CNCC[C@@H]1Nc1nc(-c2ccnc(Nc3nc4ccccc4o3)c2)nc2cncc(C3CC3)c12` [Example 327, N-[4-[5-Cyclopropyl-4-[[(4S)-3,3-dimethyl-4-piperidyl]amino]pyrido[3,4-d]pyrimidin-2-yl]-2-pyridyl]-1,3-benzoxazol-2-amine], the half-inhibitory concentration (IC50) is less than 100 nM.
